Patent US12435087B2, “Modulators of DCN-1 and methods of use thereof” (Cellarity, Inc., priority 2023, dated 2025)
Like-named read-outs stand apart in the source and are kept apart here.

Legend:
[1] = target: T1, DCN1 (DCUND1) protein PONY domain (Homo sapiens (Human), UniProt Q96GG9); test: Off-rate measurement of reversible covalent molecules (jump dilution TR-FRET with Cy5 probe); conditions: binding mode from off-rate measurement
Procedure: A TR-FRET assay was performed to classify the compounds as an irreversible covalent binder, a reversible covalent binder or a reversible binder.
An assay to measure the off-rate of reversible covalent molecules was developed. A typical covalent compound is assumed to stay bound to a protein for at least the life of that protein in the cell. In reality, there is a range of how long a covalent compounds remains bound before a reverse reaction takes place. Thus, some covalent bonds can be labeled as reversible as their reverse reaction takes place in a measurable amount of time under physiological conditions. The assay capitalizes on the range of covalent binders by using a high affinity covalent binder as a probe to displace the more reversible binders in an adaptation of the jump dilution method.
In this version of the jump dilution method, the increase in covalent probe binding over time was measured through a TR-FRET reaction between the covalent probe and the biotinylated target protein.
(§1) The recombinant form of the DCN1 (DCUND1) protein PONY domain was produced using an E. coli expression system at Viva Biotech (China). The DCN1 protein was biotinylated (EZ sulfo-NHS-LC-biotin; Thermofisher) for labeling with streptavidin terbium (Tb) cryptate in the reaction. This biotinylated protein was used in two forms of the TR-FRET assay as described below.
The off-rate measurement is executed in two steps based on the jump dilution method. […] The greatest dilution allowed within the constraints of the assay was chosen. These factors allow a competitive advantage for the covalent probe to replace the test compound when that compound releases from the target protein. The actual measure is the rate of increased TR-FRET signal as the covalent probe replaces the test compound over time. […] The resulting time dependent curve of the TR-FRET signal is fit to the following equation: Y=Y0+(Plateau−Y0)*(1−exp(−K*x))
K is the rate constant (1/unit of time). The residence time is defined as the inverse of K, the rate constant. The half-life is calculated as ln(2)/K.

[2] = target: T1, DCN1 (DCUND1) protein PONY domain; test: TR-FRET assay (binding to DCN-1, displacement of FAM-labeled probe)
Procedure, shortened: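 Compounds read at 1, 5 and 24 h, 0.1% final DMSO, by TR-FRET between terbium-streptavidin on biotinylated DCN1 PONY domain (E. coli) and a FAM-tagged non-covalent inhibitor probe. Two setups used, 5 nM protein with 20 nM labelled probe, or 0.31 nM protein with 100 nM labelled plus 800 nM unlabelled probe; buffer had TritonX and 200 mM NaCl. % activity relative to high (with probe) and low (without probe) controls.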

[3] = target: DCN2 (DCUND2) protein PONY domain (Homo sapiens (Human), UniProt Q6PH85); test: DCN2 TR-FRET assay, measurement of Kinact/KI; assay type: binding
Chain of DCN2 (DCUND2) protein PONY domain (Q6PH85 60-248): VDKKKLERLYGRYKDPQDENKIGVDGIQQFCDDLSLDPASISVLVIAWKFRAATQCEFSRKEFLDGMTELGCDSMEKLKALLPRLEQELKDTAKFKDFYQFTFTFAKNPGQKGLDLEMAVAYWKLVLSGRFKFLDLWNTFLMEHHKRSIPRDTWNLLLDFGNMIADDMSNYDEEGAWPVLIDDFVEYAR
Procedure: A TR-FRET Assay was performed to evaluate the ability of the compounds to bind DCN-2. The time resolved—Forster's resonance energy transfer (TR-FRET) assay was designed following the protocol established in (Scott et al., Nat Chem Biol. 2017 August; 13(8): 850-857). A recombinant form of the DCN2 (DCUND2) protein PONY domain was produced using an E. coli expression system at Viva Biotech China. The DCN2 protein was biotinylated (EZ sulfo-NHS-LC-biotin; Thermofisher) for labeling with 2.5 nM streptavidin terbium (Tb) cryptate in the reaction. The probe was changed to a non-covalent DCN1 inhibitor labeled with carboxyfluorescein (FAM; Zhou el al., Nat Commun. 2017; 8: 1150). Buffer conditions were modified to enhance protein stability by replacing TritonX with 0.05% Tween20 and increasing NaCl to 200 mM. […] The Kinact and KI measurements were taken to allow for continuous reads over 24 hrs. Plates were read every 5 min up to 1 hr, every 15 min up to 5 hr, and every hour up to 10 hours. Kinact and KI were calculated based on the following equations (Krippendorff B F, et al. Mechanism-based inhibition: deriving K(I) and k(inact) directly from time-dependent IC(50) values. J BiomolScreen. 2009; Mons E et al. A Comprehensive Guide for Assessing Covalent Inhibition in Enzymatic Assays Illustrated with Kinetic Simulations. […] The Kinact and KI values could be estimated from the tight curves of the IC50 values over time. [formula]

[4] = target: T1, DCN1 (DCUND1) protein PONY domain; test: TR-FRET with FAM probe (compound potency, potency of the Cy5 probe); assay type: binding; conditions: potency of the covalent Cy5 probe (P-1) to DCN1; read-out: Kd (EC50) of the Cy5 probe
Source text: as §1
This version of the TR-FRET assay was used to measure compound potency to the target, specifically to measure the potency of the Cy5 probe (P-1). A non-covalent DCN1 inhibitor (Zhou et al., 2017) labeled with carboxyfluorescein (FAM) was used as the FRET acceptor probe. Displacement of the […], and thus decrease in the FRET signal, was indicative of compound activity on the target protein. Buffer conditions were optimized to enhance compound and protein stability (200 mM NaCl, 25 mM Tris, 0.5 mM DTT, 0.05% Tween20, 5% DMSO, 5% PEG-3350, pH 7.5) and concentrations of protein (0.31 nM) and probe (100 nM labeled, 800 nM unlabeled) were optimized for detection of potent molecules. The TR-FRET ratio between Tb-DCN1 and the FAM-labeled probe was measured in a 384-well opti-plate (Perkin Elmer) using a plate reader (BMG) at 1, 5, and 24 hrs after treatment with compound. The ratio was normalized to the high (DCN1 and FAM-probe) and low (DCN1 and no probe) controls for a readout of % activity (=100*(x−low)/(high−low)).

DCN1 protein = DCN1 protein (Homo sapiens (Human), UniProt Q96GG9); test: Intact protein MS analysis with the RapidFire-TOF system (covalent adduct formation); assay type: binding; conditions: 400 nM DCN1, incubated at room temperature for 3 hours
Chain of DCN1 protein (Q96GG9 whole entry): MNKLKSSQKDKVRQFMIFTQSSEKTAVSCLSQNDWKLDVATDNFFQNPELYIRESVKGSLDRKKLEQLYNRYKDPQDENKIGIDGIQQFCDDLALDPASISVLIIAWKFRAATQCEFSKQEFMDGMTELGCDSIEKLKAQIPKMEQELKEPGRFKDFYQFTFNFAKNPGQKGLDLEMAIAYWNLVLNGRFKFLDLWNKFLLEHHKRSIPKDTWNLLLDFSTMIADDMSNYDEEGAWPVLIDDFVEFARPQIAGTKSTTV
Procedure, shortened: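 Tag-free His-TEV-DCN1 expressed in E. coli at 400 nM in 25 mM Tris-HCl, 200 mM NaCl, 1 mM DTT, incubated with 11 compound concentrations at room temperature for 3 h unless otherwise specified. Quenched with 0.2% formic acid; intact-protein RapidFire Q-TOF MS, deconvoluted to detect parent and compound-adduct masses.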

[5] = test system: Cullin-3 (CUL3) neddylation; conditions: positive control, 1 μM; Zhou et al. Nature Comm. 2021; cited from earlier work
[6] = 24 hr after treatment with compound, read-out: TR FRET IC50 24 hr
[7] = read-out: TR FRET IC50 1 hr, 1 hr after treatment with compound
[8] = TR FRET IC50 1 hr (nM), 1 hr after treatment with compound

T1 sequence (Q96GG9 60-248): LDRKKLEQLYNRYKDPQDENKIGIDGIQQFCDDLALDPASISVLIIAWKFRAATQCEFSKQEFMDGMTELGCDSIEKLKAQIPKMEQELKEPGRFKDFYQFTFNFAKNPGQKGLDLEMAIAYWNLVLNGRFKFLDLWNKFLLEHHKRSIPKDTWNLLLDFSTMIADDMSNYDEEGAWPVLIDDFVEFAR

For C=C(C(=O)NCc1cccc([C@@H]2c3cnn(-c4ccccc4)c3N(CC)C(=O)[C@H]2NC(=O)c2nccc(C(F)(F)F)n2)c1)[C@@H](C)N(C)C1COC1 [Compound I-300], the Category [1] was “irreversible”, the IC50 [2, 6] was no more than 200 nM and the IC50 [2, 7] was no more than 200 nM.
C=C(C(=O)NCc1cccc([C@@H]2c3cnn(-c4ccccc4)c3N(CC)C(=O)[C@H]2NC(=O)c2csc(C(F)(F)F)n2)c1)C(C)N(C)C1COC1 (stereo partly shown) [Compound I-305] gave a Ki [3] greater than 0.5 nM, a kinact [3] of 0.005 to 0.00833 s⁻¹ and a kinact/KI [3] of 167000 to 3.33e+06 M⁻¹ s⁻¹. The Category [1] was “irreversible”, the IC50 [2, 6] was no more than 200 nM and the IC50 [2, 7] was no more than 200 nM.
In the case of C=C(CN1CCOCC1)C(=O)Nc1cccc([C@@H]2c3cnn(-c4cccc(OCCCN5CCN(C(=O)CCCCCN6/C(=C/C=C/C=C/C7=[N+](C)c8ccc(S(=O)(=O)[O-])cc8C7(C)C)C(C)(C)c7cc(S(=O)(=O)O)ccc76)CC5)c4)c3N(CC)C(=O)[C@H]2NC(=O)c2cccc(C(F)(F)F)c2)c1 [Cy5 probe, 2-((1E,3E)-5-((E)-1-(6-(4-(3-(3-((4R,5S)-7-ethyl-4-(3-(2-(morpholinomethyl)acrylamido)phenyl)-6-oxo-5-(3-(trifluoromethyl)benzamido)-4,5,6,7-tetrahydro-1H-pyrazolo[3,4-b]pyridin-1-yl)phenoxy)propyl)piperazin-1-yl)-6-oxohexyl)-3,3-dimethyl-5-sulfoindolin-2-ylidene)penta-1,3-dien-1-yl)-1,3,3-trimethyl-3H-indol-1-ium-5-sulfonate], the EC50 [4] is reported as 23.2 nM.
Work on C=C(CN1CCOCC1)C(=O)NC[C@@H](NC(=O)[C@H](Cc1nc2ccc(C(C)C)cc2s1)NC(=O)CC)C1CCCCC1 [Compound C1, reference compound] yielded a Ki [3] of 0.2 to 0.5 nM, a kinact [3] of 0.005 to 0.00833 s⁻¹ and a kinact/KI [3] of 8.33e+06 to 1.67e+07 M⁻¹ s⁻¹.
For C/C=C(\CN1CCN(C2COC2)CC1)C(=O)Nc1cccc([C@@H]2c3cnn(-c4ccccc4)c3N(CC)C(=O)[C@H]2NC(=O)c2ccn(C(F)(F)F)n2)c1 [Compound I-383, N-((4R,5S)-7-ethyl-4-(3-((E)-2-((4-(oxetan-3-yl)piperazin-1-yl)methyl)but-2-enamido)phenyl)-6-oxo-1-phenyl-4,5,6,7-tetrahydro-1H-pyrazolo[3,4-b]pyridin-5-yl)-1-(trifluoromethyl)-1H-pyrazole-3-carboxamide], the Ki [3] was greater than 0.5 nM, the kinact [3] was 0.00333 to 0.005 s⁻¹ and the kinact/KI [3] was 167000 to 3.33e+06 M⁻¹ s⁻¹. For the same molecule, the Category [1] was “irreversible”, the IC50 [2, 6] was no more than 200 nM and the IC50 [2, 8] was no more than 200 nM.
Molecule C/C=C(\CN1CCN(C2COC2)CC1)C(=O)Nc1cccc([C@@H]2c3cnn(-c4ccccc4)c3N(CC)C(=O)[C@H]2NC(=O)c2nccc(C(F)(F)F)n2)c1 [Compound I-232, N-((4R,5S)-7-ethyl-4-(3-((E)-2-((4-(oxetan-3-yl)piperazin-1-yl)methyl)but-2-enamido)phenyl)-6-oxo-1-phenyl-4,5,6,7-tetrahydro-1H-pyrazolo[3,4-b]pyridin-5-yl)-4-(trifluoromethyl)pyrimidine-2-carboxamide] has an Emax (DCN1 protein) of 80 to 100%, an IC50 [2, 6] of no more than 200 nM and an IC50 [2, 8] of no more than 200 nM.
With CC#CC(=O)Nc1ccccc1[C@H]1c2cnn(-c3ccccc3)c2N(CC)C(=O)[C@@H]1NC(=O)c1cccc(C(F)(F)F)c1 (racemic) [Compound I-159] the Emax (DCN1 protein) was 0 to 30%, the IC50 [2, 6] was greater than 3000 nM and the IC50 [2, 8] was greater than 3000 nM.
For C=C(CN1CCOCC1)C(=O)NC[C@@H](NC(=O)[C@H](Cc1nc2ccc(C(C)C)cc2s1)NC(=O)CC)C1CCCCC1 [DI-1548], the “effect on CUL3 neddylation” value [5] is listed as “reduce CUL3 neddylation”.
CCN1C(=O)[C@H](NC(=O)c2cccc(C(F)(F)F)c2)[C@@H](c2cccc(NC(=O)/C=C/CN(C)C)c2)c2c(C)nn(-c3ccccc3)c21 (racemic) [Compound I-38] gave an Emax (DCN1 protein) of 80 to 100% and an IC50 [2, 8] of 1000 to 3000 nM.
C=C(CN1CCC1)C(=O)NCc1cccc([C@@H]2c3cnn(-c4ccccc4)c3N(CC)C(=O)[C@H]2NC(=O)c2cccc(C(F)(F)F)c2)c1 [Compound I-1] gave an Emax (DCN1 protein) of 80 to 100%, an IC50 [2, 6] of no more than 200 nM and an IC50 [2, 7] of no more than 200 nM.
C=C(CN1CCN(C2COC2)CC1)C(=O)NCc1cccc([C@@H]2c3cnn(-c4ccccc4)c3N(CC)C(=O)[C@H]2NC(=O)c2cccc(C(F)(F)F)c2)n1 [Compound I-216] gave an Emax (DCN1 protein) of 80 to 100%, an IC50 [2, 6] of no more than 200 nM and an IC50 [2, 8] of 200 to 1000 nM.
C=C(CN1CCOCC1)C(=O)Nc1cccc([C@H]2c3c(C)nn(-c4ccccc4)c3N(CC)C(=O)[C@@H]2NC(=O)c2ccn(C(F)(F)F)n2)c1 (racemic) [Compound I-65] showed an Emax (DCN1 protein) of 80 to 100%, an IC50 [2, 6] of no more than 200 nM and an IC50 [2, 7] of no more than 200 nM.
CCN1C(=O)[C@@H](NC(=O)c2cccc(C(F)(F)F)c2)[C@H](c2cccc(NC(=O)/C=C/CN(C)C)n2)c2cnn(-c3ccccc3)c21 [Compound I-214] gave an Emax (DCN1 protein) of 80 to 100%, an IC50 [2, 6] of no more than 200 nM and an IC50 [2, 8] of 200 to 1000 nM.
For C=C(CN1CCOCC1)C(=O)NCc1cccc([C@@H]2c3cnn(-c4ccccc4)c3N(CC)C(=O)[C@H]2NC(=O)c2ccn(C(F)(F)F)n2)c1 [Compound I-135], the Emax (DCN1 protein) was 80 to 100%, the IC50 [2, 6] was no more than 200 nM and the IC50 [2, 7] was no more than 200 nM.
Work on CC#CC(=O)Nc1cccc([C@H]2c3c(C)nn(-c4ccccc4)c3N(CC)C(=O)[C@H]2NC(=O)c2cccc(C(F)(F)F)c2)c1 (racemic) [Compound I-19] yielded an Emax (DCN1 protein) of 0 to 30%, an IC50 [2, 6] greater than 3000 nM and an IC50 [2, 8] greater than 3000 nM.
